The source of these data is patent publication US20170290890A1, “STIMULATION OF OVARIAN FOLLICLE DEVELOPMENT AND OOCYTE MATURATION” (The Board of Trustees of the Leland Stanford Junior …, priority 2014, published 2017).

In test [1] the target is PTEN (Homo sapiens, UniProt P60484). To be noted: cited from earlier work.
For test [2], the system named is mTOR signaling pathway. Description: Immunoblotting of mTOR pathway protein phosphorylation in ovaries. Format: cell-based, mice. The note with it: day 10 mouse ovaries, 3 h, 10 μM, FIG. 1A. The procedure: Ovaries from day 10 mice were incubated for 3 h with 10 μM of MHY1485 before immunoblotting analyses. […] Activated mTORC1 complex phosphorylates Thr389 in ribosomal S6 kinase (S6K), thereby activating it to subsequently phosphorylate ribosomal protein S6 (rpS6) and promote ribosome biogenesis. We further monitored S6K1 and rpS6 phosphorylation in ovarian tissues.
Ovaries from mice at day 10 of age were treated with MHY1485 (Millipore, Bedford, Mass.) for 3 h and proteins were extracted using M-PER Mammalian Protein Extraction Reagent (Thermo, Rockford, Ill.) containing a protease inhibitor cocktail (Thermo). Protein concentrations in supernatants were determined by the bicinchoninic acid method (Pierce, Rockford, Ill., USA). Equal amounts of protein lysates were loaded on 4-12% NuPAGE Bis-Tris gels (Invitrogen, Carlsbad, Calif.) in MOPS buffer and transferred to […] pore nitrocellulose membranes (LI-COR, Lincoln, Nebr., USA). First antibodies were from Cell Signaling (Beverly, Mass.) and rabbit secondary antibodies from LI-COR. Images were generated using a LI-COR Odyssey infrared imager.
A general note: In western blotting, separated proteins are transferred to a membrane and probed.

The test system of test [3] is Ovaries from day 10 mice. The test is described as follows: Ovarian explant culture and follicle counting. The note with it: explant culture 4 days. The class given is cell-based. The protocol:
We treated ovaries from day 10 mice with increasing doses of MHY1485 using an explant culture model.
Ovaries from day 10 mice were placed on culture plate inserts (Millipore) and cultured in 400 μl of DMEM/F12 containing 0.1% BSA, 0.1% Albumax II, insulin-transferrin-selenium, 0.05 mg/ml L-ascorbic acid and penicillin-streptomycin under a membrane insert to cover ovaries with a thin layer of medium. Ovaries were treated with 1-10 μM of MHY1485 and cultured for 4 days with medium change after 2 days of culture. At the end of culture, ovaries were fixed with formalin before weighing. Some ovaries were paraffin-embedded and cut into continuous sections. Sections were stained with hematoxylin and eosin for follicle counting, and only follicles with clearly stained oocyte nucleus were counted to avoid recounting of the same follicle.

In test [4] the test system is Ovaries from day 10 mice. The test is described as follows: Ovarian tissue grafting (in vitro treatment then allo-transplantation under kidney capsules). Format: in vivo. The note with it: 2 days in vitro treatment. The protocol: (§1) Using this model, we further treated the hosts with eCG for 2 days to promote the growth of preovulatory follicles, followed by an injection of hCG to promote oocyte maturation. At 12 h after hCG injection, mature oocytes were punctured from preovulatory follicles for in vitro fertilization.
At the end of transplantation, grafts were collected for weight determination and histological analysis. For some animals, ovaries from day 10 mice were treated with IVA drugs (PTEN inhibitor: (bpv(hopic) at 30 μM for the first day and an activator for phosphoinositol-3-kinase 740YP at 150 μg/mL for two days) before grafting.

In test [5] the test system is oocytes. The test is described as follows: In vitro fertilization and embryo transfer of oocytes from pretreated grafts. Format: in vivo, mice. The protocol:
as §1
Ovaries from B6D2F1 mice at 10 days of age were treated with 10 μM MHY1485 for 2 days, followed by transplantation into kidney capsules of hosts for 5 days. At day 5 after transplantation, animals were treated with 10 IU equine chorionic gonadotropin (eCG) for 48 h, followed by an injection of 10 IU human chorionic gonadotropin (hCG). Twelve hour later, grafts were collected and oocytes were retrieved in the M2 medium (Cytospring, Mountain View, Calif.). As controls, B6D2F1 mice at day 25 of age were treated with 5 IU eCG for 48 h, followed by 5 IU hCG before oocyte retrieval. For in vitro fertilization, sperm from B6D2F1 male mice were collected into human tubal fluid medium (Cytospring) and pre-incubated for 1 h at 37 C. Oocytes were then fertilized with sperm (2-3×10^5/ml) for 6 h, and inseminated oocytes were transferred into KSOM medium (Cytospring) for development into blastocysts. For embryo transfer, two-cell embryos were transferred into oviducts of pseudopregnant, 8-week-old CD1 nice pre-mated with vasectomized males of the same strain.

Test [6] deals with PTP. To be noted: cited from earlier work.
Where [7] appears, read: grafts 5 days with FSH, FIG. 2C.

Chain of PTEN (P60484 whole entry): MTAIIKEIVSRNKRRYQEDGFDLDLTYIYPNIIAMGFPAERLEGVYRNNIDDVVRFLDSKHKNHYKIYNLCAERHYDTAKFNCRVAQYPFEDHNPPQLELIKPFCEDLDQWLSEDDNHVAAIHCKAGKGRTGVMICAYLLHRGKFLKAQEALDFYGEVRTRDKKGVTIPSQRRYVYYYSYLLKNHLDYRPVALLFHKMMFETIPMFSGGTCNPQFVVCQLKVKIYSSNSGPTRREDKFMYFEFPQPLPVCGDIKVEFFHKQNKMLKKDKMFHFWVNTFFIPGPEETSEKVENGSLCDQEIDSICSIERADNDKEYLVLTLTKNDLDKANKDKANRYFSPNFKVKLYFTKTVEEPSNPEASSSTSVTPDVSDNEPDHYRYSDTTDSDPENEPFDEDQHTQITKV

What is called IC50 is the concentration that inhibits the measured activity by half. “potassium bisperoxo(bipyridine)oxovanadate (V)”: the IC50 in test [1] is 18 nM.

Turning to `O=[N+]([O-])c1ccc(Nc2nc(N3CCOCC3)nc(N3CCOCC3)n2)cc1` [MHY1485, 4,6-Di-4-morpholinyl-N-(4-nitrophenyl)-1,3,5-triazin-2-amine], in test [2], the phospho-mTOR levels result is “increased”, the “phosphorylation of S6K1” value is listed as “increased” and the “phosphorylation of rpS6” value is “increased”. For the same molecule, the ovarian weights entry in test [3] (1-10 μM, FIG. 1B) is “dose-dependent increases”. Also, the “follicle growth (histology, follicle counting)” value in test [3] (FIG. 1C, 1D) is “enhancement of follicle growth from early secondary to the late secondary stage”. In addition, in test [4] (grafted into adult hosts, daily FSH 5 days, FIG. 2A), the graft weights entry is recorded as “increased”. The antral/preovulatory follicles entry in test [4] (grafts 5 days with FSH, FIG. 2B, 2C) is “increases in the development of antral/preovulatory follicles”. Besides, in test [4] (setting [7]), the early secondary follicles entry was “decrease of early secondary follicles” and the primary follicles result was “increase of primary follicles”. Moreover, in test [5] (10 μM 2 days, graft 5 days, eCG then hCG, oocytes fertilized, FIG. 3A), the “development of oocytes after in vitro fertilization” value is “could develop into blastocysts”. Besides, in test [5] (FIG. 3C), the “outcome of 2-cell embryo transfer into pseudopregnant surrogate mothers” value is on record as “healthy pups were delivered”. Moreover, the “early embryonic development vs oocytes from day 25 mice (controls)” value in test [5] (percentage of oocytes developing into each embryonic stage, FIG. 3B) is on record as “comparable early embryonic development”.

In the case of `O=C([O-])c1ccccn1.OO.OO.[K+].[K+].[OH-].[V]` [dipotassium bisperoxo(picolinato)oxovanadate (V)], the IC50 in test [1] is 31 nM.

For `OO.OO.[K+].[OH-].[V].c1cnc2c(c1)ccc1cccnc12` [potassium bisperoxo (1,10-phenanthroline)oxovanadate (V)], the IC50 in test [1] was 38 nM.

For “dipotassium bisperoxo(5-hydroxypyridine-2-carboxyl)oxovanadate (V)”, the IC50 in test [1] is 14 nM.

As to monoperoxo(picolinato)oxovanadate(V), in test [6], the IC50 was 18000 nM.
